Here are results for 35 compounds from patent US20260062412A1, “NITROGEN-CONTAINING HETEROCYCLIC COMPOUND HAVING MYT1 INHIBITORY ACTIVITY” (CHUGAI SEIYAKU KABUSHIKI KAISHA, priority 2023, published 2026).

A word on the IC50: it is the midpoint of a concentration-inhibition curve. Read a low IC50 as inhibition by little substance.

This test deals with MYT1 protein (Homo sapiens (Human), UniProt Q99640). Description: Test for binding to ATP binding site of MYT1 (Kinase Tracer 178 / Eu-Anti-GST antibody TR-FRET). Particulars: ATP binding site of MYT1, 30 minutes at room temperature. A general note: Time-resolved FRET reads energy transfer from a long-lived donor to a nearby acceptor.
Sequence of MYT1 protein (Q99640 whole entry): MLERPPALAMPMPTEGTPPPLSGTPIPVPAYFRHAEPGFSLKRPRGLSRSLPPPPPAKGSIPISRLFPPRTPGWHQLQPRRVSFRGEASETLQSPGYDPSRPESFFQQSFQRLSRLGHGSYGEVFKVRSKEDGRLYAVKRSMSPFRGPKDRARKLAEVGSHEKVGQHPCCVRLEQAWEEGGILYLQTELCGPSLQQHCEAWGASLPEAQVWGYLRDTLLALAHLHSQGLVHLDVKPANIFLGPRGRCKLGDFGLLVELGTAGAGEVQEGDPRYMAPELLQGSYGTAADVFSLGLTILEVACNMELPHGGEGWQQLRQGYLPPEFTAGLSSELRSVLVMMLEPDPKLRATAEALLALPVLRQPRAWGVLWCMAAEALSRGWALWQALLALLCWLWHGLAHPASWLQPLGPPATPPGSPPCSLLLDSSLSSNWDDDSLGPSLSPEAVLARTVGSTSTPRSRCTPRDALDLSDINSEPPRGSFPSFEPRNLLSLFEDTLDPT

As to `Nc1c(-c2ccc(F)c3[nH]ncc23)c2cc(C3CC(F)(F)C3)c3ncccc3c2[nH]c1=O` [Compound C164, 3-Amino-6-(3,3-difluorocyclobutyl)-4-(7-fluoro-1H-indazol-4-yl)-1H-1,7-phenanthrolin-2-one], the IC50 was determined as 8.6 nM. This counts as single-digit nanomolar.

As to `Nc1c(-c2ccc(F)c3[nH]ncc23)c2cc(CC(F)(F)F)c3ncccc3c2[nH]c1=O` [Compound C165, 3-Amino-4-(7-fluoro-1H-indazol-4-yl)-6-(2,2,2-trifluoroethyl)-1H-1,7-phenanthrolin-2-one], the half-inhibitory concentration (IC50) amounted to 7.1 nM. The IC50 values of the last two compounds are within 1.5-fold of each other.

Compound `Nc1c(-c2ccc(F)c3[nH]ncc23)c2cc(C3CC4(C3)CC(F)(F)C4)c3ncccc3c2[nH]c1=O` [Compound C166, 3-Amino-6-(2,2-difluorospiro[3,3]heptan-6-yl)-4-(7-fluoro-1H-indazol-4-yl)-1H-1,7-phenanthrolin-2-one] registered an IC50 of 2.9 nM.

For `CC1(C)CC(c2cc3c(-c4ccc(F)c5[nH]ncc45)c(N)c(=O)[nH]c3c3cccnc23)C1` [Compound C167, 3-Amino-6-(3,3-dimethylcyclobutyl)-4-(7-fluoro-1H-indazol-4-yl)-1H-1,7-phenanthrolin-2-one], the IC50 was 46 nM.

In turn, `CC(c1cc2c(-c3ccc(F)c4[nH]ncc34)c(N)c(=O)[nH]c2c2cccnc12)C(F)(F)F` (centres unmarked) [Compound C168, 3-Amino-4-(7-fluoro-1H-indazol-4-yl)-6-(1,1,1-trifluoropropan-2-yl)-1H-1,7-phenanthrolin-2-one] yielded an IC50 of 54 nM. The same measure for `Nc1c(-c2ccc(F)c3[nH]ncc23)c2cc(C3CC4(CCC4)C3)c3ncccc3c2[nH]c1=O` [Compound C169, 3-Amino-4-(7-fluoro-1H-indazol-4-yl)-6-spiro[3,3]heptan-2-yl-1H-1,7-phenanthrolin-2-one]: 86 nM. In the case of `Nc1c(-c2ccc(F)c3[nH]ncc23)c2cc(CC(F)F)c3ncccc3c2[nH]c1=O` [Compound C170, 3-Amino-6-(2,2-difluoroethyl)-4-(7-fluoro-1H-indazol-4-yl)-1H-1,7-phenanthrolin-2-one] it was 3.3 nM.

`Nc1c(-c2ccc(F)c3[nH]ncc23)c2cc(CCC(F)F)c3ncccc3c2[nH]c1=O` [Compound C171, 3-Amino-6-(3,3-difluoropropyl)-4-(7-fluoro-1H-indazol-4-yl)-1H-1,7-phenanthrolin-2-one] displayed an IC50 of 2.2 nM.

Turning to `CC(C)(C)C1CC(c2cc3c(-c4ccc(F)c5[nH]ncc45)c(N)c(=O)[nH]c3c3cccnc23)C1` (centres unmarked) [Compound C173, 3-Amino-6-(3-tert-butylcyclobutyl)-4-(7-fluoro-1H-indazol-4-yl)-1H-1,7-phenanthrolin-2-one], the IC50 is 95 nM. The same measure for `CC1(C)CC2(CC(c3cc4c(-c5ccc(F)c6[nH]ncc56)c(N)c(=O)[nH]c4c4cccnc34)C2)C1` [Compound C174, 3-Amino-6-(2,2-dimethylspiro[3,3]heptan-6-yl)-4-(7-fluoro-1H-indazol-4-yl)-1H-1,7-one]: 140 nM; for `Nc1c(-c2ccc(F)c3[nH]ncc23)c2cc(C3CC4(CC4)C3)c3ncccc3c2[nH]c1=O` [Compound C175, 3-Amino-4-(7-fluoro-1H-indazol-4-yl)-6-spiro[2.3]hexan-5-yl-1H-1,7-phenanthrolin-2-one]: 16 nM. In the case of `N#CC1CC(c2cc3c(-c4ccc(F)c5[nH]ncc45)c(N)c(=O)[nH]c3c3cccnc23)C1` (centres unmarked) [Compound C176, 3-[3-Amino-4-(7-fluoro-1H-indazol-4-yl)-2-oxo-1H-1,7-phenanthrolin-6-yl]cyclobutane-1-carbonitrile] it was 2.1 nM; in that of `N#CC1(Cc2cc3c(-c4ccc(F)c5[nH]ncc45)c(N)c(=O)[nH]c3c3cccnc23)CC1` [Compound C177, 1-[[3-Amino-4-(7-fluoro-1H-indazol-4-yl)-2-oxo-1H-1,7-phenanthrolin-6-yl]methyl]cyclopropane-1-carbonitrile], 2.1 nM. In the case of `N#C[C@H]1C[C@@H](c2cc3c(-c4ccc(F)c5[nH]ncc45)c(N)c(=O)[nH]c3c3cccnc32)C1` [Compound C178, (1s,3s)-3-[3-Amino-4-(7-fluoro-1H-indazol-4-yl)-2-oxo-1H-1,7-phenanthrolin-6-yl]cyclobutane-1-carbonitrile] it was 2.3 nM; in that of `N#C[C@H]1C[C@H](c2cc3c(-c4ccc(F)c5[nH]ncc45)c(N)c(=O)[nH]c3c3cccnc32)C1` [Compound C179, (1r,3r)-3-[3-Amino-4-(7-fluoro-1H-indazol-4-yl)-2-oxo-1H-1,7-phenanthrolin-6-yl]cyclobutane-1-carbonitrile], 0.84 nM; in that of `CC(C)(C)c1ccc2c(ccc3c(-c4ccc(F)c5[nH]ncc45)c(N)c(=O)[nH]c32)n1` [Compound C180, 3-Amino-8-tert-butyl-4-(7-fluoro-1H-indazol-4-yl)-1H-1,7-phenanthrolin-2-one], 41 nM.

`Cc1ccc2c(n1)c(I)cc1c(-c3ccc(F)c4[nH]ncc34)c(N)c(=O)[nH]c12` [Compound C181, 3-Amino-4-(7-fluoro-1H-indazol-4-yl)-6-iodo-8-methyl-1H-1,7-phenanthrolin-2-one] showed an IC50 of 23 nM. Turning to `Cc1ccc2c(n1)c(C1CC1)cc1c(-c3ccc(F)c4[nH]ncc34)c(N)c(=O)[nH]c12` [Compound C182, 3-Amino-6-cyclopropyl-4-(7-fluoro-1H-indazol-4-yl)-8-methyl-1H-1,7-phenanthrolin-2-one], the IC50 came to 5.5 nM.

The compound `Cc1ccc2c(ccc3c(-c4ccc(F)c5[nH]ncc45)c(N)c(=O)[nH]c32)n1` [Compound C183, 3-Amino-4-(7-fluoro-1H-indazol-4-yl)-8-methyl-1H-1,7-phenanthrolin-2-one] displayed an IC50 of 110 nM. In turn, `Nc1c(-c2ccc(F)c3[nH]ncc23)c2cc(C(F)(F)F)c3ncccc3c2[nH]c1=O` [Compound C187, 3-Amino-4-(7-fluoro-1H-indazol-4-yl)-6-(trifluoromethyl)-1H-1,7-phenanthrolin-2-one] came in with an IC50 of 20 nM. In the case of `Nc1c(-c2ccc(F)c3[nH]ncc23)c2cc(OC(F)(F)F)c3ncccc3c2[nH]c1=O` [Compound C188, 3-Amino-4-(7-fluoro-1H-indazol-4-yl)-6-(trifluoromethoxy)-1H-1,7-phenanthrolin-2-one] it was 4.1 nM. The same measure for `Cc1cc2c(-c3ccc(F)c4[nH]ncc34)c(N)c(=O)[nH]c2c2cc(B(O)O)cnc12` [Compound C189, [3-Amino-4-(7-fluoro-1H-indazol-4-yl)-6-methyl-2-oxo-1H-1,7-phenanthrolin-9-yl]boronic acid]: 18 nM; for `Nc1c(-c2cc(F)c(F)c3[nH]ncc23)c2cc(C3CC3)c3ncccc3c2[nH]c1=O` [Compound C191, 3-Amino-6-cyclopropyl-4-(6,7-difluoro-1H-indazol-4-yl)-1H-1,7-phenanthrolin-2-one]: 6 nM; for `CCc1cc2c(-c3cc(F)c(F)c4[nH]ncc34)c(N)c(=O)[nH]c2c2cccnc12` [Compound C192, 3-Amino-4-(6,7-difluoro-1H-indazol-4-yl)-6-ethyl-1H-1,7-phenanthrolin-2-one]: 3.7 nM. In the case of `CCOc1cc2c(-c3cc(F)c(Cl)c4[nH]ncc34)c(N)c(=O)[nH]c2c2cccnc12` [Compound C193, 3-Amino-4-(7-chloro-6-fluoro-1H-indazol-4-yl)-6-ethoxy-1H-1,7-phenanthrolin-2-one] it was 1.7 nM; in that of `CC(C)Oc1cc2c(-c3cc(F)c(Cl)c4[nH]ncc34)c(N)c(=O)[nH]c2c2cccnc12` [Compound C194, 3-Amino-4-(7-chloro-6-fluoro-1H-indazol-4-yl)-6-propan-2-yloxy-1H-1,7-phenanthrolin-2-one], 1.6 nM; in that of `Cc1cc2c(-c3cc(F)c(Cl)c4[nH]ncc34)c(N)c(=O)[nH]c2c2cccnc12` [Compound C196, 3-Amino-4-(7-chloro-6-fluoro-1H-indazol-4-yl)-6-methyl-1H-1,7-phenanthrolin-2-one], 3.6 nM. As for `Nc1c(-c2cc(F)c(F)c3[nH]ncc23)c2ccc3ncccc3c2[nH]c1=O` [Compound C197, 3-Amino-4-(6,7-difluoro-1H-indazol-4-yl)-1H-1,7-phenanthrolin-2-one], the IC50 was 20 nM. In the case of `Nc1c(-c2cc(F)c(F)c3[nH]ncc23)c2cc(Cl)c3ncccc3c2[nH]c1=O` [Compound C198, 3-Amino-6-chloro-4-(6,7-difluoro-1H-indazol-4-yl)-1H-1,7-phenanthrolin-2-one] it was 3.1 nM; in that of `Nc1c(-c2cc(F)c(F)c3[nH]ncc23)c2cc(O)c3ncccc3c2[nH]c1=O` [Compound C199, 3-Amino-4-(6,7-difluoro-1H-indazol-4-yl)-6-hydroxy-1H-1,7-phenanthrolin-2-one], 3.8 nM. In the case of `Nc1c(-c2cc(F)c(F)c3[nH]ncc23)c2cc(C3CCC3)c3ncccc3c2[nH]c1=O` [Compound C201, 3-Amino-6-cyclobutyl-4-(6,7-difluoro-1H-indazol-4-yl)-1H-1,7-phenanthrolin-2-one] it was 5.7 nM; in that of `Nc1c(-c2cc(F)c(F)c3[nH]ncc23)c2cc(C3CCCC3)c3ncccc3c2[nH]c1=O` [Compound C202, 3-Amino-6-cyclopentyl-4-(6,7-difluoro-1H-indazol-4-yl)-1H-1,7-phenanthrolin-2-one], 7.7 nM. In the case of `CC(C)Cc1cc2c(-c3cc(F)c(F)c4[nH]ncc34)c(N)c(=O)[nH]c2c2cccnc12` [Compound C203, 3-Amino-4-(6,7-difluoro-1H-indazol-4-yl)-6-(2-methylpropyl)-1H-1,7-phenanthrolin-2-one], the IC50 turned out to be 17 nM. In the case of `C=Cc1cc2c(-c3cc(F)c(F)c4[nH]ncc34)c(N)c(=O)[nH]c2c2cccnc12` [Compound C204, 3-Amino-4-(6,7-difluoro-1H-indazol-4-yl)-6-ethenyl-1H-1,7-phenanthrolin-2-one] it was 10 nM; in that of `Nc1c(-c2cc(F)c(F)c3[nH]ncc23)c2cc(OC(F)F)c3ncccc3c2[nH]c1=O` [Compound C205, 3-Amino-4-(6,7-difluoro-1H-indazol-4-yl)-6-(difluoromethoxy)-1H-1,7-phenanthrolin-2-one], 3.4 nM.
